The text below walks through data of patent publication US6284746A (Chinoin, Ltd., priority 1993, dated 2001).

The structures appear in SMILES notation. In brackets after ≈: the same amount, converted by molar mass.

A short description of series [1]: Solubility of taxol with soluble anionic-β-cyclodextrin polymer CDPSI (Example 4). The class given is physicochemical.
The conditions of series [2]: background statement; cited from earlier work.
A short description of series [3]: physchem. Conditions: 40% aqueous dimethyl-beta-cyclodextrin.
Procedure: 11.6 mg of Taxol (Sigma Chemicals Co. USA) is treated in 10 ml of 40% aqueous heptakis-2,6-di-O-methylated β-cyclodextrin at room temperature for 30 minutes, until a solution of slight haze is obtained.
Series [4] is described as follows: physchem. To be noted: pH 7.6.
Procedure: Randomly methylated β-cyclodextrin (average degree of substitution=1.8) was dissolved in physiological buffered saline (pH 7.6) at different concentrations and these solutions were incubated with the taxol substrate for 12 hours at room temperature. Each sample contained taxol in 5 mg/ml initial concentration. The suspensions after equilibration were membrane filtered and assayed for dissolved taxol by HPLC.
For series [5] the following is noted: cited from earlier work.
Series [6] is described as follows: physchem.
Source text: The suspension was filtered and the dissolved taxol determined by HPLC.
A short description of series [7]: Solubilizing of taxol with HPBCD (Example 5). The class given is physicochemical.
Source text: Taxol was solubilized and formulated with 2-hydroxypropylated β-cyclodextrin. (HPBCD).
Series [8] is described as follows: physchem. Conditions: water.
For series [9] the following is noted: 25° C., 12 hours.

As usually defined, the solubility is how much of the substance goes into solution per volume. A higher solubility goes with much dissolved substance. One may read the solubility (thermodynamic) as solubility found after equilibrating the solid with the medium. Consider `CC(=O)O[C@H]1C(=O)[C@@]2(C)[C@H]([C@H](OC(=O)c3ccccc3)[C@]3(O)C[C@H](OC(=O)[C@H](O)[C@@H](NC(=O)c4ccccc4)c4ccccc4)C(C)=C1C3(C)C)[C@]1(OC(C)=O)CO[C@@H]1C[C@@H]2O` (relative stereo) [taxol, [2aR-[2aα, 4β; 4αβ,6β,9α(αR*,βS*),11α-12α,12aα, 12bα]]-β-(Benzoylamino)-α-hydroxybenzene-propanoic acid 6,12-b-bis (acetyloxy)-12-(benzoyloxy)-2a,3,4,4a, 5,6,9,10,11,12,12a,12b-dodecahydro-4,11-dihyroxy-4a,8,13,13-tetramethyl-5-oxo-7,11-methano-1H-cyclodeca[3,4]-benz-[1,2-b]oxet-9-yl ester], for which the solubility in [1] (0% cdpsi, CDPSI 0%) amounted to 0.6 µg/mL (≈ 0.703 µM); in series [1] (1% cdpsi solution, CDPSI 1%) it was 1.8 µg/mL (≈ 2.11 µM); in [1] (5% cdpsi solution, CDPSI 5%) it was 3.5 µg/mL (≈ 4.1 µM); in series [1] (10% cdpsi solution, CDPSI 10%), 10.6 µg/mL (≈ 12.4 µM); in series [1] (40% cdpsi solution, CDPSI 40%), 56.8 µg/mL (≈ 66.5 µM); in series [7] (0.5% hpbcd solution, HPBCD 0.5%) it was 1 µg/mL (≈ 1.17 µM). The solubility in [7] (1% hpbcd solution, HPBCD 1%) was 1.7 µg/mL (≈ 1.99 µM); in series [7] (5% hpbcd solution, HPBCD 5%), 6.8 µg/mL (≈ 7.96 µM); in series [7] (10% hpbcd solution, HPBCD 10%), 34.9 µg/mL (≈ 40.9 µM); in series [7] (40% hpbcd solution, HPBCD 40%) it was 100 µg/mL (≈ 118 µM); in [7] (HPBCD none), 0.6 µg/mL (≈ 0.703 µM); in series [8] it was 0.55 to 0.59 µg/mL (≈ 0.644 to 0.691 µM). Further, the antitumor activity entry in series [2] is recorded as “significant antitumor activity”. Also, the “products of decomposition, biological activity” value in series [2] was “biologically inactive products are forming”. The compound further gave a solubility at 0.5 h in series [3] of 992 to 1000 µg/mL (≈ 1160 to 1170 µM). Moreover, the thermodynamic solubility at 12 h in series [4] (1% rameb in buffered saline) was 4.4 µg/mL (≈ 5.15 µM); in series [4] (5% rameb in buffered saline), 42.5 µg/mL (≈ 49.8 µM); in [4] (10% rameb in buffered saline), 232 µg/mL (≈ 271 µM); in [4] (40% rameb in buffered saline) it was 860 µg/mL (≈ 1010 µM); in series [4] (buffered saline) it was 0.6 µg/mL (≈ 0.703 µM); in series [6] (10% aqueous succinyl-methyl-β-cyclodextrin), 244 µg/mL (≈ 286 µM). The compound further yielded a thermodynamic solubility at 12 h in series [6] (40% succinyl-methyl-β-cyclodextrin solution) of 993 µg/mL (≈ 1160 µM). Also, the stability of taxol result in series [5] (Bartoli et al., background) was “generally poor stability”. Also, the “sensitivity to light and pH” value in series [5] (background statement) was “very sensitive to light and the pH”. For the same compound, the solubility of taxol in series [5] (glycosyl- and maltosyl-β-cyclodextrins with ethanol and ethylacetate (Mikuni 1993)) was 20 to 110 µg/mL.
For `CC(=O)O[C@@]12CO[C@@H]1C[C@H](O)[C@@]1(C)C(=O)[C@H](O)C3=C(C)[C@@H](OC(=O)[C@H](O)[C@@H](NC(=O)OC(C)(C)C)c4ccccc4)C[C@@](O)([C@@H](OC(=O)c4ccccc4)[C@H]21)C3(C)C` [Taxotere, butoxycarbonyl-10-deacetyl-N-debenzoyl taxol], the “solubility enhancement relative to free taxol derivative in water” value in series [9] turned out to be 850 times.
